Measurements as given in patent publication US20070270403A1 (priority 2003, published 2007).

Tests used:
[1] = Pharmacokinetics of cocaine and its metabolites (literature); settings: rat, in vivo, ip; i.p. cocaine, extrapolated
[2] = tested on: Sprague-Dawley laboratory rats; test: Locomotor activity (ambulations) by infrared photobeams (clozapine studies); assay type: in vivo, Sprague-Dawley Rattus Norvegicus; settings: Subacute, cocaine 10 mg/kg i.p. on Day 1
Source text: Locomotor activity (ambulation) was monitored with infrared photobeams at the same time as DA and 5-HT release in NAcc was detected with BRODERICK PROBES® in conjunction with In Vivo Microvoltammetry. The chamber was faradaic, covered with copper to refract possible electrical artifacts (dimensions: 24 in (width) by 18 in (depth) by 23.5 in (height)). A 16 by 16 array of these infrared photobeams, were held in place by an aluminum frame which was situated ¾ in above the Plexiglas floor of the chamber to detect locomotor activity. Photobeams were sampled by a Pentium computer to define the x-y position of the animal within a 1.5 in resolution every 100 msec. When an x-y position was calculated, it was used to define the frequency of locomotor activity in counts. The locomotor activity system is a modified version of an Activity Pattern Monitor (APM) (San Diego Instruments, San Diego, Calif.). Behavioral data is presented in absolute frequency, i.e., number of counts recorded.
The first hr pre-drug allowed exploratory behavior. Exploratory behavior is defined as open-field behavior of ambulations (forward locomotion) wherein animals respond to the stimuli of a novel environment with high frequency of behavioral counts. The second hr pre-drug allowed the animal to become habituated before treatment.
In the Acute studies, each drug was administered at the end of the habituation period. Baseline (control) values were taken every five min for the last thirty min of the habituation period at which time drug injection(s) took place. Electrochemical recordings for DA and 5-HT release in NAcc, were continued for two hrs; at the same time, locomotor behavior continued to be monitored and recorded with infrared photobeams. At the end of the 2 hr drug(s) study, animals were then placed back in their home cages.
In the Subacute studies, which took place twenty-four hrs later, the animals were again placed in the faradaic behavioral chamber and no further drug was administered. Recordings of separate electrochemical signals for DA and 5-HT release in NAcc, were taken for one hr; at the same time, locomotor behavior was monitored and recorded with infrared photobeams.
(§1) Neurochemical and behavioral data, derived from the last thirty minutes of the habituation period, provided the baseline data. […] Where appropriate, data points in the time course were subjected to 95% Confidence Limits (C.L.).

[3] = tested on: Sprague-Dawley laboratory rats; test: Locomotion (ambulations) by infrared photobeams (risperidone studies); assay type: in vivo, Sprague-Dawley Rattus Norvegicus; settings: Subacute
Description: (§2) Behaviors were monitored with infrared photobeams which surrounded the faradaic chamber. Open-field behaviors of locomotion (ambulations) and stereotypy (fine movements of sniffing and grooming) were recorded in sec and repeated every five min for a period of 2 hrs before each treatment and a period of 2 hrs after each treatment. Open-field behaviors were monitored simultaneously with in vivo microvoltammetric recordings of monoamines.
(§3) The first hr pre-drug, allowed exploratory behavior. Exploratory behavior is defined as open-field behavior of ambulations (forward locomotion) and stereotypy (fine movements of sniffing and grooming), wherein animals respond to the stimuli of a novel environment with a high frequency of behavioral counts. The second hr pre-drug allowed the animal to become habituated before treatment. […] In the acute studies, each drug was administered […]. For the subacute studies, twenty four hrs later, the animals were again placed in the faradaic behavioral chamber and no further drug was administered. Each animal was monitored for possible recovery, withdrawal or after-effects. of each treatment WHILE open-field behaviors of locomotions and stereotypy were monitored with computerized infrared photocell beams which surround the faradaic chamber.
(§4) The faradaic chamber was made of plexiglas and covered with copper wire to refract possible electrical artifacts (dimensions: 24 inch (width) by 18 inch (depth) by 23.5 inch (height)). A 16 by 16 array of infrared photobeams, held in place by an aluminum frame, was situated ¾ inch above the Plexiglas floor of the chamber to detect locomotor and stereotypic movements. Photobeams were sampled by a Pentium computer to define the x-y position of the animal within a 1.5 inch resolution every 100 msec. When an x-y position was calculated, it was used to define a particular behavioral parameter. This system is a modified version of an Activity Pattern Monitor (APM) (San Diego Instruments, San Diego, Calif.). Behavioral data is presented in terms of Frequency of Events.
as §1

5-HT release in NAcc = test: In vivo microvoltammetry, 5-HT release in NAcc (risperidone studies); design: species or system Sprague-Dawley Rattus Norvegicus; settings: Subacute, cocaine 10 mg/kg i.p. on Day 1
Description: In vivo microvoltammetry was used to detect dopamine (DA) and serotonin (5-HT) release from Nucleus Accumbens (NAcc) of freely moving, male, Sprague Dawley laboratory rats, while animals' locomotor (forward ambulations) and stereotypic behavior (fine movements of sniffing and grooming) were monitored at the same time with infrared photobeams. Monoamine release mechanisms were determined by using a depolarization blocker, gamma-butyrolactone (γBL). Miniature carbon sensors, BRODERICK PROBE® Lauric Acid Microelectrodes, smaller than a human hair, were used in conjunction with a semidifferential electrochemical circuit, to detect release of each monoamine in separate signals and within seconds. […] The hypothesis for the present studies is derived from a growing body of evidence that cocaine-induced psychosis and schizophrenic psychosis share similar neurochemical and behavioral manifestations.
Animals were purchased from Charles River Laboratories, Kingston, N.Y. and were housed in our animal care facilities for two weeks before surgery was performed. The Animal Care Facility operates under the auspices of the CUNY, City College Institutional Animal Care and Use Committee (IACUC) in compliance with National Institute of Health (NIH) guidelines. The weight range for the animals, at the time of the studies, was 350-475 g. Animals were group housed before surgery, individually housed after surgery and fed Purina Rat Chow and water ad libitum. A twelve hr dark-light cycle was maintained both in the housing of the animals and throughout the experimental studies. […] A Ag/AgCl reference electrode was placed in contact with dura, 7 mm anteriorally and contralaterally to the indicator microelectrode. A stainless steel auxiliary microelectrode, was placed in contact with dura.
In vivo microvoltammetric studies on conscious Sprague-Dawley laboratory rats were begun nine to fifteen days after the aseptic surgical operations were performed. On each experimental day, animals were placed in a Plexiglas-copper faradaic chamber. The three-microelectrode assembly, enclosed within the animal's prosthetic acrylic cap, was connected to a CV37 detector by means of a mercury commutator (Br. Res. Instr., Princeton, N.J.), a flexible cable, and a mating connector (BJM Electronics, Staten Island, N.Y.). The CV37 detector was electrically connected to a Minigard surge suppresser (Jefferson Electric, Magnetek, N.Y.) which was then connected to an electrical ground in isolation. […] Each animal was used as its own control. In vivo microvoltammetric scans were recorded in sec and repeated every five min for a period of 2 hrs before each treatment and a period of two hrs after each treatment.
as §3

[4] = tested on: Sprague-Dawley laboratory rats; test: Stereotypy (fine movements of sniffing and grooming) by infrared photobeams (risperidone studies); assay type: in vivo, Sprague-Dawley Rattus Norvegicus
Description: as §2, §3, §4, §1

## COC(=O)[C@H]1[C@@H](OC(=O)c2ccccc2)C[C@@H]2CC[C@H]1N2C [Cocaine, cocaine]
[1]
  half-life: ~2 h
[2]
  Decrease in locomotor activity on Day 2 compared with Day 1 effects of cocaine: 250 counts
[3]
  Decrease in locomotor activity frequency on Day 2 compared with drug treatment, Day1: about 200 counts
5-HT release in NAcc
  Decrease in 5-HT release on Day 2 compared to drug effect on Day1: about 75%
[4]; 24 hr after cocaine 10 mg/kg i.p. or risperidone 2 mg/kg s.c. + cocaine
  Stereotypy frequency, Day 2 (Subacute): 40 counts
[4]; Subacute, cocaine 10 mg/kg i.p.
  Decrease in stereotypy frequency on Day 2 compared with drug treatment, Day1: about 20 counts
[4]; cocaine 10 mg/kg i.p. or risperidone 2 mg/kg s.c. + cocaine
  Stereotypy frequency with drug treatment, Day1: 60 counts
